Reference: paper PMC7956476, “Quinoline Functionalized Schiff Base Silver (I) Complexes: Interactions with Biomolecules and In Vitro Cytotoxicity, Antioxidant and Antimicrobial Activities” (Molecules, 2021)

What was measured:
Experiment in all cases: Cytotoxicity assay (CellTiter 96 AQueous One Solution, 72 h)
[1] = test system: human embryonic kidney 293 (HEK293); assay type: cell-based; details: normal cell line, n = 3, read-out: EC50 ± Std Dev (µM) HEK293
Protocol: (§1) In vitro cell viability with cultured cells is a method commonly used for cytotoxicity activities of potential anticancer compounds due to reduced cost speed, and potential for automation, and tests using human cells other than some in vivo animal tests. […] The cytotoxicity assay was conducted as per the standard method and as described by Abrahams et al. 2018 [111]. […] The plate was then incubated for 72 h at 37 °C and 5% CO2. To each well, 20 µL CellTiter 96 AQueous One Solution (Promega, Madison, WI, USA) was added and the plates were incubated for 4 h as previously described. Thereafter, absorbance was read at 490 nm on a multiplate reader (Molecular Devices, San Jose, CA, USA). […] The values recorded are averages of at least three separate experiments (n = 3).

[2] = test system: neuronal cancer cell line (SHSY5Y); assay type: cell-based, human
Protocol: as §1

[3] = test system: breast cancer cell line (MDA-MB231); assay type: cell-based, human
Protocol: as §1

[4] = test system: cervical cancer cell line (HELA); assay type: cell-based, human
Protocol: as §1

N.N.[Cl][Pt][Cl] [Cisplatin, cisplatin, reference compound]
EC50 [1]: 14.2 ± 3.8 µM
EC50 ([2]; 72 h, n = 3, read-out: EC50 ± Std Dev (µM) SHSY5Y): 19.7 ± 3.77 µM
Selectivity Index (SI) SHSY5Y ([2]; EC50 in HEK293 over EC50 in SHSY5Y): 0.72
EC50 ([3]; 72 h, n = 3, read-out: EC50 ± Std Dev (µM) MDA-MB231): 22.7 ± 4.89 µM
Selectivity Index (SI) MDA-MB231 ([3]; EC50 in HEK293 over EC50 in MDA-MB231): 0.63
EC50 ([4]; 72 h, n = 3, read-out: EC50 ± Std Dev (µM) HELA): > 50 µM
Selectivity Index (SI) HELA ([4]; EC50 in HEK293 over EC50 in HELA): 0.28
